# Reference: ChEMBL document CHEMBL1141723, “Specific targeting of metzincin family members with small-molecule inhibitors: progress toward a multifarious challenge” (Bioorg Med Chem, 2008)
# Calls of active or inactive are those of the source. The calls are words filed in the database; no cut-off is given here.
# Experiments:
# [1] = biological target: T1, Interstitial collagenase (Homo sapiens, UniProt P03956)
# T1 sequence (P03956 whole entry): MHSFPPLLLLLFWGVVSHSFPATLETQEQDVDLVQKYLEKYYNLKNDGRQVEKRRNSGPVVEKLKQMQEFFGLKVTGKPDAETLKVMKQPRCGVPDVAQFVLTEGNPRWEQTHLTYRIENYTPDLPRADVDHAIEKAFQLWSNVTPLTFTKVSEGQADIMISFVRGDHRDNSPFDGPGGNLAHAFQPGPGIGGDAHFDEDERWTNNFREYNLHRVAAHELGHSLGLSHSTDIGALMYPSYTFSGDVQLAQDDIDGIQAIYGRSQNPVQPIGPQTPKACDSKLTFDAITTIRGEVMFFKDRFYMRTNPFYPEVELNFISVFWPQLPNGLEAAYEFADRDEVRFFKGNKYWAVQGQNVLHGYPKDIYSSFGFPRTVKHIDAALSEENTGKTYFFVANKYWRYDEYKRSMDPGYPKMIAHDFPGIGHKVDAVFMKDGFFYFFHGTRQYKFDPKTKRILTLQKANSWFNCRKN
# [2] = biological target: Disintegrin and metalloproteinase domain-containing protein 33 (Homo sapiens, UniProt Q9BZ11); test: Inhibition of ADAM33
# [3] = biological target: T2, Matrix metalloproteinase-9 (Homo sapiens, UniProt P14780); test: Inhibition of MMP9
# [4] = biological target: T3, Stromelysin-1 (Homo sapiens, UniProt P08254)
# Target sequence in this assay (P08254 whole entry): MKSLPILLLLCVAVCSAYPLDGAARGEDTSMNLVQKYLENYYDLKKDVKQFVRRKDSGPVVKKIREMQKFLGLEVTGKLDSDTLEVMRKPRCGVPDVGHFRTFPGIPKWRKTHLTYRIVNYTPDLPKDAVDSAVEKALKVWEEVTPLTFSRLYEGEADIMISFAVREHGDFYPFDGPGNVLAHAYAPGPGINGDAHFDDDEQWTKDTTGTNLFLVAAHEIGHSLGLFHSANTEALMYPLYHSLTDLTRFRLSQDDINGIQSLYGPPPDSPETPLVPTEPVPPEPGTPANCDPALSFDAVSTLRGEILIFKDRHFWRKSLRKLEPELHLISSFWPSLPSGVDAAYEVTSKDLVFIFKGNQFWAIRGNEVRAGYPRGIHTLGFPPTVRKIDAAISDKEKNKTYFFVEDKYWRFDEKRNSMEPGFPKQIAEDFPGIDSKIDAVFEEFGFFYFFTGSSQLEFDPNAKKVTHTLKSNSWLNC
# [5] = biological target: T4, Matrilysin (Homo sapiens, UniProt P09237)
# T4 sequence (P09237 whole entry): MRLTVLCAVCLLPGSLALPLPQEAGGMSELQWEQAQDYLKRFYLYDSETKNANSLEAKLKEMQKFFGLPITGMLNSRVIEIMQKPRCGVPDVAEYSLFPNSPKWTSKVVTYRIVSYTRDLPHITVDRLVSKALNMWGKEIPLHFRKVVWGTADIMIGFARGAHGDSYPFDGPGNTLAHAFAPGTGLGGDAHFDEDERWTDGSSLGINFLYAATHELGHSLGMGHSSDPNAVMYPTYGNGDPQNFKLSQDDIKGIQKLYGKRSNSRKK
# [6] = biological target: Disintegrin and metalloproteinase domain-containing protein 9 (Homo sapiens, UniProt Q13443)
# [7] = biological target: T5, 72 kDa type IV collagenase (Homo sapiens, UniProt P08253)
# Target sequence in this assay (P08253 whole entry): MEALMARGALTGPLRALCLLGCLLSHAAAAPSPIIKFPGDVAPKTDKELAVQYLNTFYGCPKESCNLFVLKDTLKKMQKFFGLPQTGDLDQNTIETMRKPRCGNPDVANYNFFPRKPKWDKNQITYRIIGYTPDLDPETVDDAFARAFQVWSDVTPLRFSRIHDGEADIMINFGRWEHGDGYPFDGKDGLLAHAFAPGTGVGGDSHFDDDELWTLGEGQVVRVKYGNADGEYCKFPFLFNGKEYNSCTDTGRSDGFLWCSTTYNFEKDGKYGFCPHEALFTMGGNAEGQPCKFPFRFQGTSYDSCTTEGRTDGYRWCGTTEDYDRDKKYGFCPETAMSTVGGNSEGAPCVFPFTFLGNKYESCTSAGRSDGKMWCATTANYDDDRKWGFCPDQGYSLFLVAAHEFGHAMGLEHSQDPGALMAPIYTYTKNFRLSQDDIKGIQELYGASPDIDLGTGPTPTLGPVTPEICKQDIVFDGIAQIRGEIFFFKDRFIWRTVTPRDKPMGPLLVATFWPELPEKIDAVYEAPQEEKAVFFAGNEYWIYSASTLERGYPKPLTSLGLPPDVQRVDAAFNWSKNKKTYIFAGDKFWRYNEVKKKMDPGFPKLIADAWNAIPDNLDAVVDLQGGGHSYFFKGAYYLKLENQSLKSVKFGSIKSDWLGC
# [8] = Selectivity for MMP13 over MMP14
# [9] = Selectivity for MMP13 over MMP2
# [10] = Selectivity for MMP13 over MMP3
# [11] = Selectivity for MMP13 over MMP9
# [12] = Selectivity for MMP13 over MMP12
# [13] = Selectivity for MMP13 over MMP8
# [14] = Selectivity for MMP13 over MMP1
# [15] = biological target: Collagenase 3 (Homo sapiens, UniProt P45452); test: Inhibition of MMP13
# [16] = biological target: T6, Macrophage metalloelastase (Homo sapiens, UniProt P39900); test: Inhibition of MMP12 up to 100 uM
# Target sequence in this assay (P39900 106-470 limits assumed): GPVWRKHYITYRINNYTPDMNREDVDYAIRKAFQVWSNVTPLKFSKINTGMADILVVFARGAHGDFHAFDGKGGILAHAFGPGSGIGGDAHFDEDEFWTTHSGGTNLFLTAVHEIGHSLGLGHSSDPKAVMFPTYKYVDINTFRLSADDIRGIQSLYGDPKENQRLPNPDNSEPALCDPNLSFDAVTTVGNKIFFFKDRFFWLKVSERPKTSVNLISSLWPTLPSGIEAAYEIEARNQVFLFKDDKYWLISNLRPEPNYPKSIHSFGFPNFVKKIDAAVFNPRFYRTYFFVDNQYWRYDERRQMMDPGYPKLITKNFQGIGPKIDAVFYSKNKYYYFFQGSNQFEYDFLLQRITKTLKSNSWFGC
# [17] = biological target: T5, 72 kDa type IV collagenase; test: Inhibition of MMP2 up to 100 uM
# Target sequence in this assay (P08253 110-660 limits assumed): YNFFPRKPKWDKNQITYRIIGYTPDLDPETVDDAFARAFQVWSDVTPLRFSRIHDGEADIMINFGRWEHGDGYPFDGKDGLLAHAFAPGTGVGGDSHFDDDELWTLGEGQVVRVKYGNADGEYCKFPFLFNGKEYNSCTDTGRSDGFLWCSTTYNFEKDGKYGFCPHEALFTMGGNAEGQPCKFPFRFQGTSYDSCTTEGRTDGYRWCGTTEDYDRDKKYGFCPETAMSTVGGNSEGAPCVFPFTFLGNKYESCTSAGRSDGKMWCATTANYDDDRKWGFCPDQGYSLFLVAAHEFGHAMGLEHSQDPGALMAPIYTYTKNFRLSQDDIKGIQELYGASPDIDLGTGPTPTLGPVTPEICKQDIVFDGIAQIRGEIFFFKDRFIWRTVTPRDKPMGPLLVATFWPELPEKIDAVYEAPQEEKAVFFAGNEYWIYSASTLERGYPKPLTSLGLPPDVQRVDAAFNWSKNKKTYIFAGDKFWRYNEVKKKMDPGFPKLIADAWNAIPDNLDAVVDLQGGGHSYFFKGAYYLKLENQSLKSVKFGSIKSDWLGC
# [18] = biological target: T3, Stromelysin-1; test: Inhibition of MMP3 up to 100 uM
# Target sequence in this assay (P08254 100-477 limits assumed): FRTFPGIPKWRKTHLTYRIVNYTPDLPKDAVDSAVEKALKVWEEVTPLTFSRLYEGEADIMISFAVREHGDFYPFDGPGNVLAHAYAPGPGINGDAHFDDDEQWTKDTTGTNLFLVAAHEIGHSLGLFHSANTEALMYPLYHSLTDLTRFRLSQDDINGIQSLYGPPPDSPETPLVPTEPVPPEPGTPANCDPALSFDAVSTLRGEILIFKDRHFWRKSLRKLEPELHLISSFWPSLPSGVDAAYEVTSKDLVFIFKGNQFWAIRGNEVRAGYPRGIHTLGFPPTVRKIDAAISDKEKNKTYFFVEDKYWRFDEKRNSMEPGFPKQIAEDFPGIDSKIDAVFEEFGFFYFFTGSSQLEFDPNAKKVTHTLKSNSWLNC
# [19] = biological target: T7, Stromelysin-2 (Homo sapiens, UniProt P09238); test: Inhibition of MMP10 up to 100 uM
# [20] = biological target: T8, Matrilysin (Homo sapiens) (UniProt P09237); test: Inhibition of MMP7 up to 100 uM
# T8 sequence (whole entry): T4 sequence (P09237 whole entry)
# [21] = biological target: T2, Matrix metalloproteinase-9; test: Inhibition of MMP9 up to 100 uM
# [22] = biological target: T9, Matrix metalloproteinase-16 (Homo sapiens, UniProt P51512); test: Inhibition of MMP16 up to 100 uM
# [23] = biological target: T10, Matrix metalloproteinase-14 (Homo sapiens, UniProt P50281); test: Inhibition of MMP14 up to 100 uM
# [24] = biological target: T11, Interstitial collagenase (Homo sapiens) (UniProt P03956); test: Inhibition of MMP1 at 100 uM
# T11 sequence (whole entry): T1 sequence (P03956 whole entry)
# [25] = biological target: T12, Neutrophil collagenase (Homo sapiens, UniProt P22894); test: Inhibition of MMP8 up to 100 uM
# Target sequence in this assay (P22894 101-467 limits assumed): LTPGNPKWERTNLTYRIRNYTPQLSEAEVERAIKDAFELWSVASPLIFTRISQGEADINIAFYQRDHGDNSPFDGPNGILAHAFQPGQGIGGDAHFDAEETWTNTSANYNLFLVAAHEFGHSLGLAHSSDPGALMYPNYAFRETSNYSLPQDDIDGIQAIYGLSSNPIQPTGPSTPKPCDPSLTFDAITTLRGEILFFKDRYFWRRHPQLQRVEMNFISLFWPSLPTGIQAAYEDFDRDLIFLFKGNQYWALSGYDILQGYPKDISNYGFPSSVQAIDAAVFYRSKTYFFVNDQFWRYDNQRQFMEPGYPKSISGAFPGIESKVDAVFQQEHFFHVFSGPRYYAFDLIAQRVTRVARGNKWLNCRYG
# [26] = tissue or blood
# [27] = biological target: T10, Matrix metalloproteinase-14; test: Inhibition of MMP14
# [28] = biological target: Bone morphogenetic protein 1 (Homo sapiens, UniProt P13497); test: Inhibition of BMP1
# [29] = biological target: T9, Matrix metalloproteinase-16; test: Inhibition of MMP16
# [30] = Selectivity for pig TACE over MMP7
# [31] = Selectivity for pig TACE over MMP1
# [32] = biological target: T12, Neutrophil collagenase; test: Inhibition of MMP8
# [33] = Selectivity for pig TACE over MMP2
# [34] = Selectivity for pig TACE over MMP3
# [35] = biological target: T6, Macrophage metalloelastase; test: Inhibition of MMP12
# [36] = Selectivity for pig TACE over MMP9
# [37] = Selectivity for pig TACE over MMP8
# [38] = biological target: Matrix metalloproteinase-15 (Homo sapiens, UniProt P51511)
# [39] = biological target: T7, Stromelysin-2; test: Inhibition of MMP10
# T2 sequence (P14780 whole entry): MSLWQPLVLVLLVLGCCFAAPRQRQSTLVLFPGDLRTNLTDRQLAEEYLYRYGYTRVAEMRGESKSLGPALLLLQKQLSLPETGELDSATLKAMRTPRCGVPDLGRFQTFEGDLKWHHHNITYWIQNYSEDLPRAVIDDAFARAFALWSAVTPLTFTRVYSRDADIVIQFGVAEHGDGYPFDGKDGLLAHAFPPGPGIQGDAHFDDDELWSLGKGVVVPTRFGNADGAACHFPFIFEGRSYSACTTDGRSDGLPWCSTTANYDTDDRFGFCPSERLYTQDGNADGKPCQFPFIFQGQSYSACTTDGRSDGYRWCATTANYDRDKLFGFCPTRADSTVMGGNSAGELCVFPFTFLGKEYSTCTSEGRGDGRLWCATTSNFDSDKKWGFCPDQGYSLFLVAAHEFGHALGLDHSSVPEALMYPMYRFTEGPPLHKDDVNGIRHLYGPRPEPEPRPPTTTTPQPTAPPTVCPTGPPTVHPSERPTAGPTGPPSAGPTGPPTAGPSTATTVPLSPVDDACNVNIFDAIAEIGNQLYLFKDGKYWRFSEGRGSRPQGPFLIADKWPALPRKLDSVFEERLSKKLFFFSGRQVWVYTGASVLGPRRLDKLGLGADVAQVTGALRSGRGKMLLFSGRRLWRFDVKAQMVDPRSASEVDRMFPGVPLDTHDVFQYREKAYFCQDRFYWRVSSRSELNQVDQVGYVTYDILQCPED
# T9 sequence (P51512 whole entry): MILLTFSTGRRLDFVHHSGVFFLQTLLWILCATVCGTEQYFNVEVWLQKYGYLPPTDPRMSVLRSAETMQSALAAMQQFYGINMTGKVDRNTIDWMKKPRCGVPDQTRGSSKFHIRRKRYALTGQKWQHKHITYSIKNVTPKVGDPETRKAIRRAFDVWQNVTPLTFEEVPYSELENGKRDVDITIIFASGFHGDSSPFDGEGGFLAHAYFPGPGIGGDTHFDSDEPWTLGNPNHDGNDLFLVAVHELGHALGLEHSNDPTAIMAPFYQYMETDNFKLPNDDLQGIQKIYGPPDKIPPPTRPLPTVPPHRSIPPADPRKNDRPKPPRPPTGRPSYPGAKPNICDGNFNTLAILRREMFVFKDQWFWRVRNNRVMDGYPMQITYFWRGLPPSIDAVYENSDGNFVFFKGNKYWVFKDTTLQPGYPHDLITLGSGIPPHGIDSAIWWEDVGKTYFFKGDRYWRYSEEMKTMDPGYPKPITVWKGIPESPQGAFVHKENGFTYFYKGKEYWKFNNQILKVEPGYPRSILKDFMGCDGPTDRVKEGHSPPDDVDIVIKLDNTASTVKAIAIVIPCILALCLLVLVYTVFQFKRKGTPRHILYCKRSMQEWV
# Sequence of Disintegrin and metalloproteinase domain-containing protein 33 (Q9BZ11 whole entry, the tested form may be a part): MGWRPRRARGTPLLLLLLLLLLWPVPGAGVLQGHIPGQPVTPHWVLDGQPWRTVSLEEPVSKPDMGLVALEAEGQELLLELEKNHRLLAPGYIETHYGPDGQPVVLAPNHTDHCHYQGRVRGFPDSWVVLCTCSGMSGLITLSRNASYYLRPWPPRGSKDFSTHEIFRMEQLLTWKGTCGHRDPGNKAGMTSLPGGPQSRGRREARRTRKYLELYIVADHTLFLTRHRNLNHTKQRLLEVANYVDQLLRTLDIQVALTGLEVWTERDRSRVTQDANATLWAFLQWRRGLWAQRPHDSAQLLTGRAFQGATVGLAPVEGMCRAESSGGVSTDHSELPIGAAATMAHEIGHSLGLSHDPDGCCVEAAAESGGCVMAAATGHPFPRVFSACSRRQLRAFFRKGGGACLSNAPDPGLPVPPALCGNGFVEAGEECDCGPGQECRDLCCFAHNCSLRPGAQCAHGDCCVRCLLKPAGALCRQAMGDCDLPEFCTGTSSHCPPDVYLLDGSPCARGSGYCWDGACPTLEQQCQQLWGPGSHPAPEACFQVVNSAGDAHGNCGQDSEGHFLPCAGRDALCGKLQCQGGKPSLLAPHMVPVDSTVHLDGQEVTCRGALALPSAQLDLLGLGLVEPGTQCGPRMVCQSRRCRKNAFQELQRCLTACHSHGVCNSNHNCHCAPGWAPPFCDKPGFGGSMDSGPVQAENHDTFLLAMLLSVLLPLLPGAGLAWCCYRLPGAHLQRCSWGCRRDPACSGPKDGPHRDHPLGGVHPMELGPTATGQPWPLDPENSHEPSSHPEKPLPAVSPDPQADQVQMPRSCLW
structure (smiles),measurement,setting,value
COC(=O)N1CC2(CC2)C[C@H](C(=O)NO)[C@H]1C(=O)N1CC=C(c2ccccc2)CC1,IC50,[1],> 5000 nM
same,IC50,[2],1030 nM
same,IC50,[3],304 nM
same,IC50,[4],3560 nM
same,IC50,[5],> 5000 nM
same,IC50,[6],> 5000 nM
same,IC50,[7],35 nM
COCCC1(Oc2ccc(Oc3ccc(-c4nc(-c5ccc(C#N)cc5)co4)cc3)cc2)C(=O)NC(=O)NC1=O,fold change (FC),[8],540
same,fold change (FC),[9],397
same,fold change (FC),[10],17000
same,fold change (FC),[11],540
same,fold change (FC),[12],619
same,fold change (FC),[13],394
same,fold change (FC),[14],2400
same,IC50,[15],0.36 nM
O=C(NCc1cccnc1)c1cc(C(=O)NCc2cccnc2)ncn1,Activity,[16],inactive
same,Activity,[17],inactive
same,Activity,[18],inactive
same,Activity,[19],inactive
same,Activity,[20],inactive
same,Activity,[21],inactive
same,Activity,[22],inactive
same,Activity,[23],inactive
same,Activity,[24],inactive
same,Activity,[25],inactive
Cc1cc(COc2ccc([C@]3(C)CCN([C@H](C)C(=O)NO)C3=O)cc2)c2ccccc2n1,Ki,[2],15 nM
same,IC50,[26],0.35 nM
CS(=O)(=O)NCc1noc([C@H](CCCC2CCCCC2)CC(=O)NO)n1,Ki,[1],1 nM
same,Ki,[3],> 100000 nM
same,Ki,[4],> 100000 nM
same,Ki,[27],> 100000 nM
same,Ki,[28],11 nM
same,Ki,[15],91000 nM
O=C1NCCCC[C@@H](C(=O)NCC(=O)N2CCOCC2)NC(=O)[C@H](Cc2ccc(-c3ccccc3C(F)(F)F)cc2)[C@@H](C(=O)NO)CCCO1,Ki,[1],> 2000 nM
same,Ki,[29],> 2000 nM
same,fold change (FC),[30],> 100
same,Ki,[3],> 2000 nM
same,fold change (FC),[31],> 100
same,Ki,[4],> 2000 nM
same,Ki,[32],200 nM
same,fold change (FC),[33],> 100
same,fold change (FC),[34],> 100
same,Ki,[35],> 2000 nM
same,Ki,[7],> 2000 nM
same,fold change (FC),[36],> 100
same,fold change (FC),[37],45
same,Ki,[38],> 2000 nM
same,Ki,[27],> 2000 nM
same,Ki,[39],> 2000 nM
